# In patent publication US20050192289A1, “Novel cinnamic amides” (Active Biotech AB, priority 2004, published 2005):
# Structures can show the parent of a compound that is named as a salt.
# Legend:
# [1] = molecular target: T1, CCR1 receptor (Homo sapiens, UniProt P32246); experiment: In vitro Ca2+-flux assay on human monocytes (THP-1 cells stimulated with MIP-1α); assay type: cell-based; conditions: block of MIP-1α mediated Ca2+ mobilisation in THP-1 cells; Fluo-4
# T1 construct: host or cells: THP-1
# T1 sequence (P32246 1-355): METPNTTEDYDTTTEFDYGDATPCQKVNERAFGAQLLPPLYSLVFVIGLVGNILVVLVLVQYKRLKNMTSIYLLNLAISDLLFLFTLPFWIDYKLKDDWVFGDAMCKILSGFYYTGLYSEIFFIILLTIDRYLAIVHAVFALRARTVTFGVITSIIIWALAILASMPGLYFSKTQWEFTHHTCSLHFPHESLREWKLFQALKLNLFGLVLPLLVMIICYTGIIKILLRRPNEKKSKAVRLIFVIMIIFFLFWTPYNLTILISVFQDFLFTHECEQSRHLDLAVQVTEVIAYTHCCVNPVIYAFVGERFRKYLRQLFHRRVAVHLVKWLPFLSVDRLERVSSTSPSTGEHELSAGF
# Procedure: The binding of Mip-1α at the CCR1 receptor leads to an increase of intracellular calcium levels. The ability of the compounds of the invention to block this biologic response of the CCR1 receptor is determined in the Ca^2+-flux assay.
# In vitro Ca^2+-Flux Assay on Human Monocytes
# • 1. Cell Culture: • a) THP-1 (ATCC Cat# TIB202) • b) Tissue culture medium: RPMI 1640 with Ultraglutamine 1 supplemented with 10% (v/v) foetal calf serum. This medium is hereinafter referred to as “growth medium”. • 2. Assay buffer: HMSS (Hanks' balanced salts solution), 20 mM HEPES, 1 mM CaCl2, 1 mM MgCl2, 2.5 mM Probenecid, pH 7.4. • 3. Fluo-4AM (Molecular Probes Cat # F14201) • 4. Pluronic® F-127 (Molecular Probes Cat # P-6867) • 5. The compounds of the invention were dissolved in DMSO. A serial dilution was made and nine concentrations of each compound were screened to generate a dose curve from which the IC50 value was determined. • 6. MIP-1α (Peprotech EC Ltd Cat # 300-08) • 7. Victor^2 1420 (Perkin Elmer) • 8. Microlite™ ^2+ (Dynex Cat # 7572) Assay Procedure:
# THP-1 cells were grown in T-75 cm^2 flasks in growth medium at 37° C. in 5% CO2. The cells were harvested by centrifugation and resuspended in assay buffer. The cells were then loaded with 5 μM Fluo-4 and 0.02% pluronic acid (final concentrations) at 37° C. in 5% CO2 for 30 min. The excess dye was removed by washing with assay buffer. The cells were resuspended and 10^5 cells/well were added in a Microlite plate containing compounds and then incubated for 15 minutes at 37° C. in 5% CO2. The cells were then stimulated with MIP-1α and changes in intracellular free Ca^2+ concentration were measured with a Victor^2.
# [2] = molecular target: T2, cloned human CCR1 Chemokine receptor (Homo sapiens, UniProt P32246); experiment: In vitro competitive affinity binding assay (displacement of 125I-MIP-1α); conditions: displacement of 125I-MIP-1α from cloned human CCR1 expressed in CHO cells, coated on FlashPlate; 1 hour, ambient temperature
# T2 construct: purchased Perkin Elmer 6120525; host or cells: CHO cells
# T2 sequence (P32246 1-355): T1 sequence (P32246 1-355)
# Text: In the competitive affinity binding assay, the binding affinity of the compounds for the CCR1 receptor can be determined by measuring their ability to displace ^125I-Mip-1α from the CCR1 receptor.
# In vitro Competitive Affinity Binding Assay
# • 1. Screen Ready™ Targets: cloned human CCR1 Chemokine receptor, expressed in CHO cells, coated on 96-well FlashPlate® (Perkin Elmer Cat #6120525) • 2. Ligand: ^125I-MIP-1α from Perkin Elmer (specific activity is 2200 Ci/mmol) was reconstituted to 25 μCi/L in H2O. • 3. Assay buffer: 50 mM HEPES, 1 mM CaCl2, 5 mM MgCl2, 0.2% BSA, pH 7.4. • 4. MIP-1α (Peprotech EC Ltd Cat # 300-08) • 5. The compounds of the invention were dissolved in DMSO. A serial dilution was made and ten concentrations of each compound were screened to generate a dose curve from which the IC50 value was determined. Assay Procedure:
# Membranes coated on the FlashPlate® were incubated with ^125I-MIP-1α in the presence and absence of different concentrations of compounds at ambient temperature for 1 hour. The radioactivity in each well was determined in a microplate scintillation counter, The non-specific binding was defined by binding in the presence of 1250-fold unlabeled MIP-1α. The assay was performed according to the manufacturer's instruction of Screen Ready™ Targets.
# [3] = In vivo bioavailability in the mouse (cassette dosing, i.v. or oral); conditions: female mice (SJL/N Tac), nominal dose 1 mg/kg/compound; for half-life / clearance: mouse; for half-life: plasma half-life; for clearance: plasma; for F: oral bioavailability, F=(AUCinf,po/AUCinf,iv)·(Doseiv/Dosepo)
# Procedure: Female mice (SJL/N Tac) were given a single intravenous or oral dose of a mixture of 5 or 6 compounds per cassette (nominal dose: 1 mg/kg/compound) in a solution containing 0.5% N,N′-dimethylacetamide (DMA) and 15% sulfobutyl ether β-cyclodextrin (Captisol®). Blood samples were taken from one mouse per time point and dose group until 24 hour after respective administration. The dose formulations and plasma concentrations of each compound were determined by LC-MS/MS. The pharmacokinetic parameters were determined by non-compartmental analysis using WinNonlin Professional (version 4.0.1). The elimination rate constant, λ, was estimated by linear regression analysis of the terminal slope of the logarithmic plasma concentration-time curve. The area under the plasma concentration-time curve, AUC0-t, was calculated by using the linear/logarithmic trapezoidal rule. The AUCinf was calculated with the residual area estimated as Cz/λ. The calculated plasma concentration at the last time point, Cz, was obtained from the regression equation. The oral bioavailability (F) was calculated as: Foral=(AUCinf,po/AUCinf,iv)·Doseiv/Dosepo). Pharmacodynamic Assays
SMILES,IC50 [1] [nM],IC50 [2] [nM],half-life [3] [h],clearance [3] [mL/min/kg],F [3] [%]
"C[C@@H]1CN(C(=O)/C=C/c2ccc3nonc3c2)[C@@H](C)CN1Cc1ccc(F)cc1 (racemic) [Compound 5.13, (E)-(trans)-3-Benzo[2,1,3]oxadiazol-5-yl-1-[4-(4-fluoro-benzyl)-2,5-dimethyl-piperazine-1-yl]-prop-2-en-1-one]",12,43,2.3,58.3,29
"COc1cc(/C=C/C(=O)N2C[C@@H](C)N(Cc3ccc(F)cc3)C[C@@H]2C)cc(OC)c1OC (racemic) [Compound 5.19, (E)-(trans)-1-[4-(4-Fluoro-benzyl)-2,5-dimethyl-piperazine-1-yl]-3-(3,4,5-trimethoxy-phenyl)-prop-2-en-1-one]",8,17,,,
"C[C@@H]1CN(C(=O)/C=C/c2cc(Cl)c3nsnc3c2)[C@@H](C)CN1Cc1ccc(F)cc1 (racemic) [Compound 5.46, (E)-(trans)-3-(4-Chloro-benzo[2,1,3]thiadiazol-6-yl)-1-[4-(4-fluorobenzyl)-2,5-dimethyl-piperazine-1-yl]-prop-2-en-1-one]",7,,,,
"C[C@@H]1CN(C(=O)/C=C\c2ccc(Cl)cc2)[C@@H](C)CN1Cc1ccc(F)cc1 (racemic) [Compound 8.1, (Z)-(trans)-3-(4-Chloro-phenyl)-1-[4-(4-fluoro-benzyl)-2,5-dimethyl-piperazine-1-yl]-prop-2-en-1-one, reference compound]",207,> 1000,,,
"O=C(/C=C/c1ccc(Cl)cc1)N1CCN(Cc2ccc(F)cc2)CC1 [B, 3-(4-chloro-phenyl)-1-[4-(4-fluoro-benzyl)-piperazine-1-yl]-prop-2-en-1-one, reference compound]",63,235,,,
"O=C(/C=C\c1ccc(Cl)cc1)N1CCN(Cc2ccc(F)cc2)CC1 [Compound 8.2, (Z)-3-(4-Chloro-phenyl)-1-[4-(4-fluoro-benzyl)-piperazine-1-yl]-prop-2-en-1-one, reference compound]",> 1000,> 1000,,,
"O=C(/C=C/c1ccc(Cl)cc1Cl)N1CCN(Cc2ccc(Cl)cc2)CC1 [Compound C, 1-(4-chlorobenzyl)-4-(2,4-dichlorocinnamoyl)-piperazine, reference compound]",120,,,,
"C[C@@H]1CN(Cc2ccc(F)cc2)C[C@H](C)N1C(=O)/C=C/c1ccc(Cl)cc1 [F, reference compound]",416,> 1000,,,

# Continued by falling IC50 [1], values first:
IC50 [1] [nM],IC50 [2] [nM],half-life [3] [h],clearance [3] [mL/min/kg],F [3] [%],SMILES
910,,,,,"C[C@H]1CN(C(=O)/C=C/c2ccc(Cl)cc2)[C@@H](C)CN1Cc1ccc(F)cc1 (racemic) [Compound 9.1, (E)-(cis)-3-(4-Chloro-phenyl)-1-[4-(4-fluoro-benzyl)-2,5-dimethyl-piperazine-1-yl]-prop-2-en-1-one, reference compound]"
110,565,,,,"COc1cc(/C=C/C(=O)N2CCN(Cc3ccc(F)cc3)CC2)cc(OC)c1OC [Compound A, 1-[4-(4-Fluoro-benzyl)-piperazine-1-yl]-3-(3,4,5-trimethoxy-phenyl)-prop-2-en-1-one, reference compound]"
23,33,,,,"C[C@@H]1CN(C(=O)/C=C/c2ccc([N+](=O)[O-])cc2)[C@@H](C)CN1Cc1ccc(F)cc1 (racemic) [Compound 5.5, (E)-(trans)-1-[4-(4-Fluoro-benzyl)-2,5-dimethyl-piperazine-1-yl]-3-(4-nitro-phenyl)-prop-2-en-1-one]"
18,,,,,"C[C@@H]1CN(C(=O)/C=C/c2ccc(Cl)cc2Cl)[C@@H](C)CN1Cc1ccc(F)cc1 (racemic) [Compound 5.6, (E)-(trans)-3-(2,4-Dichloro-phenyl)-]-[4-(4-fluoro-benzyl)-2,5-dimethyl-piperazine-1-yl]-prop-2-en-1-one hydrochloride]"
9,14,5.3,80,62,"C[C@@H]1CN(C(=O)/C=C/c2ccc(Cl)cc2)[C@@H](C)CN1Cc1ccc(F)cc1 (racemic) [Compound 6.1, (E)-(trans)-3-(4-Chloro-phenyl)-1-[4-(4-fluoro-benzyl)-2,5-dimethyl-piperazine-1-yl]-prop-2-en-1-one]"
6,39,,,,"C[C@@H]1CN(C(=O)/C=C/c2ccc(Cl)c([N+](=O)[O-])c2)[C@@H](C)CN1Cc1ccc(Cl)cc1 (racemic) [Compound 5.2, (E)-(trans)-3-(4-Chloro-3-nitro-phenyl)-1-[4-(4-chloro-benzyl)-2,5-dimethyl-piperazine-1-yl]-prop-2-en-1-one]"
4,21,,,,"C[C@@H]1CN(C(=O)/C=C/c2ccc(Cl)c([N+](=O)[O-])c2)[C@@H](C)CN1Cc1ccc(F)cc1 (racemic) [Compound 6.2, (E)-(trans)-3-(4-Chloro-3-nitro-phenyl)-1-[4-(4-fluoro-benzyl)-2,5-dimethyl-piperazne-1-yl]-prop-2-en-1-one]"
